Laboratory results from patent US10562893B2, “Benzimidazoles derivatives as Tec kinases family inhibitors” (GB005, Inc., priority 2015, dated 2020).
pEC50: −log10 of the molar value.

Key:
Human PBMCs = test: CD3/CD28 mediated PBMC proliferation assay; type: cell-based; details: proliferation of human PBMCs stimulated with anti-CD3 and anti-CD28, 72 hours, Cell Titer-Glo
Protocol: Inhibition of cellular ITK was assessed by measuring proliferation of PBMCs following stimulation with anti-CD3 and anti-CD28 antibodies. Individual wells of 96 well tissue culture plates were coated with 50 μL of 5 μg/mL anti-CD3 (OKT3, eBiosciences) for 2 hours at 37° C. Human PBMCs (Stemcell Technologies catalog #70025.3) were plated in 96-well plates at a final concentration of 9.2×10e5 cells/mL in complete media (RPMI, 10% heat inactivated FBS, 55 uM β-mercaptoethanol) and pre-treated with compound curves for 30 minutes at 37° C., 5% CO2. Pre-treated cells plus compounds were transferred to washed anti-CD3 coated plates. Soluble anti-CD28 (CD28.2 eBiosciences) was added to each well at a final concentration of 2 μg/mL. The cells were placed in a humidified 37° C. incubator with 5% CO2 for 72 hours and metabolic viability was measured by quantification of ATP levels with Cell Titer-Glo (Promega catalog # G9242). Controls included unstimulated cells and vehicle alone. EC50 values (50% proliferation in the presence of compound as compared to vehicle treated controls) were calculated from dose response compound curves using GraphPad Prism Software.

[1] = test system: Jurkat human acute T cell leukemia cells; test: Jurkat IL-2 release assay; type: cell-based; details: IL-2 release from Jurkat cells stimulated with anti-CD3 and anti-CD28, 48 hours, ELISA
Protocol: Inhibition of cellular ITK was assessed by measuring release of IL-2 following stimulation with anti-CD3 and anti-CD28 antibodies. Individual wells of 96 well tissue culture plates were coated with 50 μL of 10 μg/mL anti-CD3 (OKT3, eBiosciences) for 2 hours at 37° C. Jurkat human acute T cell leukemia cells (ATCC) were plated in 96-well plates at a final concentration of 9.2×10e5 cells/mL in complete media (RPMI, 10% FBS, 1.5 g/L sodium bicarbonate, 10 mM Hepes, 1 mM sodium pyruvate, 4.5 g/L glucose) and pre-treated with compound curves for 30 minutes at 37° C., 5% CO2. Pre-treated cells plus compounds were transferred to washed anti-CD3 coated plates. Soluble anti-CD28 (CD28.2 eBiosciences) was added to each well at a final concentration of 1 μg/mL. The cells were placed in a humidified 37° C. incubator with 5% CO2 for 48 hours and IL-2 release was measured using a commercial ELISA (BD Bioscience catalog #555190). Controls included unstimulated cells and vehicle alone. EC50 values (50% IL-2 release in the presence of compound as compared to vehicle treated controls) were calculated from dose response compound curves using GraphPad Prism Software.

ITK = ITK (Homo sapiens (Human), UniProt Q08881); test: ITK kinase inhibition assay; type: biochemical; details: micro-fluidic detection, 3 hours at 25° C.
Protocol: (§1) The in vitro kinase assays were performed at Nanosyn utilizing micro-fluidic detection technology. The test compounds were serially pre-diluted in DMSO and added, by the acoustic dispensing (Labcyte® 550), directly to 384 well assay plates into 10 uL of a buffer with enzyme comprising: 100 mM HEPES, pH7.5, 5 mM MgCl2, 0.1% bovine serum albumin, 1 mM DTT, 0.01% Triton X-100 and the enzyme. Final DMSO concentration was maintained at 1% in all samples, including the controls. The reactions were initiated by addition of ATP (to the specified concentration) and the fluorescently labeled peptide substrate to a final concentration of 1 uM, and incubated for 3 hours at 25° C. Following incubation, the reactions were quenched by addition of 40 μL of termination buffer (100 mM HEPES, pH7.5, 0.01% Triton X-100, 50 mM EDTA). Terminated plates were analyzed using Caliper LabChip® 3000 microfluidic electrophoresis instrument (Caliper Life Sciences/Perkin Elmer). The enzymatic modification of the peptide substrate (phosphorylation) results in a change of net charge enabling electrophoretic separation of product from substrate. As substrate and product are separated by electrophoresis, two peaks of fluorescence are observed. Change in the relative fluorescence intensity of the substrate and product peaks was the parameter measured, reflecting enzyme activity. In the presence of inhibitor, the ratio between product and substrate is altered: signal of the product decreases, while the signal of the substrate increases. Activity in each test sample was determined as the product to sum ratio (PSR):P/(S+P), where P is the peak height of the product and S is the peak height of the FAM-cAMP substrate. For each compound, enzyme activity was measured at 12 concentrations spaced by 3× dilution intervals. Negative control samples (0%-inhibition in the absence of inhibitor, DMSO only) and positive control samples (100%-inhibition, in the absence of enzyme or in the presence of control inhibitor) were assembled in replicates of four and were used to calculate %-inhibition values in the presence of compounds. Percent inhibition (Pinh) was determined using the following equation: Pinh=(PSR0%−PSRinh)/(PSR0%−PSR100%)*100, where PSRinh is the product sum ratio in the presence of inhibitor, PSR0% is the product sum ratio in the absence of inhibitor and PSR100% is the product sum ratio in 100%-inhibition control samples. To determine IC50 values, the inhibition curves (Pinh versus inhibitor concentration) were fitted by 4 parameter sigmoid dose-response model using XLfit software (IDBS).

RLK/TXK = RLK/TXK (Homo sapiens (Human), UniProt P42681); test: RLK/TXK kinase inhibition assay; type: biochemical; details: micro-fluidic detection, 3 hours at 25° C.
Protocol: as §1, with “384well” for “384 well”, “(PSR): P/(S+P),” for “(PSR):P/(S+P),”

Sequence of ITK (Q08881 whole entry): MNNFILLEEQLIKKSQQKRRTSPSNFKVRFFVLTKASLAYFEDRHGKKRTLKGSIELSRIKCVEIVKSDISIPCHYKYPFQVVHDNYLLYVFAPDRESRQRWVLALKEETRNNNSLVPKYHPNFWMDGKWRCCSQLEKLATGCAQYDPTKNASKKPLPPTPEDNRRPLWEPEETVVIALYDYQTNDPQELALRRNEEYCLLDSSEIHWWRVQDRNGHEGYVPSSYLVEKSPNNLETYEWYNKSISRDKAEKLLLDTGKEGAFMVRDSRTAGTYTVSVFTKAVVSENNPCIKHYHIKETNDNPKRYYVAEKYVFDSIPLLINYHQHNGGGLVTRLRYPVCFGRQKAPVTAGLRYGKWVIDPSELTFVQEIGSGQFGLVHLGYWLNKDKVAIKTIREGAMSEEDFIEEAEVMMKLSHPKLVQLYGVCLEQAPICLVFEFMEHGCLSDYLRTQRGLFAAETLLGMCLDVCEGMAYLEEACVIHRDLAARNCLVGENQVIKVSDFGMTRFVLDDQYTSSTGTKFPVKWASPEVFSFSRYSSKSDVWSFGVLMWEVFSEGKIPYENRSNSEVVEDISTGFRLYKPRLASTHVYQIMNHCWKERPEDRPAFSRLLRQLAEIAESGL
Sequence of RLK/TXK (P42681 whole entry): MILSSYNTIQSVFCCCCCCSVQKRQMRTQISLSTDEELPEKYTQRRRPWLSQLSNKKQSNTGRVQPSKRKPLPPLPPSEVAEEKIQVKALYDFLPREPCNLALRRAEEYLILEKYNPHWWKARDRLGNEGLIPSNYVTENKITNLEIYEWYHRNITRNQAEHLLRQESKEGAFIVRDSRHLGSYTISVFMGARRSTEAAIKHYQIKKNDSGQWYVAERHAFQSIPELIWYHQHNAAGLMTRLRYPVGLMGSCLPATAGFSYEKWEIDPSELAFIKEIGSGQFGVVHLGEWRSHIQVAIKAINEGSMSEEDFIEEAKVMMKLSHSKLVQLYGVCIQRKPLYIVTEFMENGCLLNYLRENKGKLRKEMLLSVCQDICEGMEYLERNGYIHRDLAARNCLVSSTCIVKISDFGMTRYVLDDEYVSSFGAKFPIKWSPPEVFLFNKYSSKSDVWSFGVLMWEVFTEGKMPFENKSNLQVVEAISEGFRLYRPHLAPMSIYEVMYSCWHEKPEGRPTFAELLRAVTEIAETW

Compound | pEC50 (Human PBMCs) | pEC50 [1] | pEC50 (ITK) | pEC50 (RLK/TXK)
C=CC(=O)N[C@H]1CC[C@@H](n2c(NC(=O)c3ccc(C(F)F)s3)nc3cc(CN[C@@H](C)C(C)(C)C)ccc32)CC1 [Compound 3] | < 7.00 | 7.00 to 8.00 | 7.00 to 8.00 | 7.00 to 8.00
C=CC(=O)Nc1cccc(-n2c(NC(=O)c3ccc(C(F)F)s3)nc3cc(CN[C@H]4CC[C@H](O)CC4)ccc32)c1 [Compound 31] | > 8.00 | > 8.00 | > 8.00 | > 8.00
C=CC(=O)Nc1cccc(-n2c(NC(=O)c3ccncc3)nc3cc(CN[C@@H](C)C(C)(C)C)ccc32)c1 [Compound 16] | 7.00 to 8.00 | 7.00 to 8.00 | > 8.00 | > 8.00
C=CC(=O)Nc1cccc(-n2c(NC(=O)c3ccc(C#N)cc3)nc3cc(CN[C@@H](C)C(C)(C)C)ccc32)c1 [Compound 11] | 7.00 to 8.00 | < 7.00 | > 8.00 | > 8.00
C=CC(=O)Nc1cccc(-n2c(NC(=O)c3cncs3)nc3cc(CN[C@@H](C)C(C)(C)C)ccc32)c1 [Compound 17] | 7.00 to 8.00 | 7.00 to 8.00 | 7.00 to 8.00 | > 8.00
C=CC(=O)N[C@@H]1CCC[C@H](n2c(NC(=O)c3ccc(C(F)F)s3)nc3cc(CN[C@@H](C)C(C)(C)C)ccc32)C1 [Compound 81] | 7.00 to 8.00 | > 8.00 | > 8.00 | 7.00 to 8.00
C=CC(=O)Nc1cccc(-n2c(NC(=O)c3ccc(C(F)F)s3)nc3cc(N(C)C(=O)[C@H](C)N4CCOCC4)ccc32)c1 [Compound 77] | 7.00 to 8.00 | > 8.00 | > 8.00 | > 8.00
C=CC(=O)Nc1cccc(-n2c(NC(=O)c3cccnc3)nc3cc(CN[C@@H](C)C(C)(C)C)ccc32)c1 [Compound 19] | 7.00 to 8.00 | > 8.00 | > 8.00 | 7.00 to 8.00
C=CC(=O)Nc1cccc(-n2c(NC(=O)c3ccns3)nc3cc(CN[C@@H](C)C(C)(C)C)ccc32)c1 [Compound 43] | > 8.00 | > 8.00 | > 8.00 | > 8.00
